According to patent publication US8946478B2, “Benzamide derivative with anticancer activity and preparation method and use thereof” (Zhejiang Hisun Pharmaceutical Co., Ltd., priority 2010, dated 2015):

Assays:
[1] = system: human breast cancer cell strain MCF-7; experiment: In vitro SRB tumor cell growth inhibition (GI50); type: cell-based; conditions: Homo sapiens, MCF7, 48 h, MCF-7 cells
Description: (§1) Human colon cancer cell strains (Colo205 and HCT-116), human breast cancer cell strains (MCF-7 and MDA-MB435), human lung cancer cell strains (A549, 95D and NCI460), human ovarian cancer cell strains (OVCAR-5, OVCAR-8, HO8910 and SKOV-3), human leukemia (HL-60 and K562), human prostate cancer (DU145 and BXPC-3), human uterine cancer (Hela), human pancreatic cancer (PANC-1), human hepatoma (HepG 2) were all obtained from ATCC. Colo205, HL-60, K562 cells were cultured in RPMI 1640 containing 2 mM/L glutamine, 10% FBS, 1.0 mM sodium pyruvate. HCT-116, MCF-7, A549, 95D, HO8910, NCI460, OVCAR-5, OVCAR-8, DU145, BXPC-3, Hela, PANC-1, HepG2 cells were cultured in DMEM containing 2 mM/L glutamine, 10% FBS. MDA-MB435 cells were cultured in L-15 containing 2 mM/L glutamine, 10% FBS. SKOV-3 cells were cultured in McCoy's containing 2 mM/L glutamine, 10% FBS. Colo205, HL-60 and K562 cells were seeded in 96-well plates, 150 μL/well and 8000 cells/well, and the 96-well plates were pre-incubated in an incubator at 37° C. with 5% CO2, 100% relative humidity for 24 hours. HCT-116, MCF-7, NCI460, OVCAR-5, OVCAR-8, Hela, HepG 2 and MDA-MB435 cells were seeded in 96-well plates, 5000 cells/well; A549, 95D, HO8910, DU145, BXPC-3, PANC-1 and SKOV-3 cells were seeded in 96-well plates, 10000 cells/well, and the 96-well plates were pre-incubated in an incubator at 37° C. with 5% CO2, 100% relative humidity for 24 hours, to allow the cells to adhere.
(§2) 50 μL of pre-cooled 50% (mass/volume) TCA was added into the time zero control wells for each cell strain to fix the cells. To other wells, 50 μL of various concentrations of compounds were added, and maintained for 48 h, wherein each drug concentration was in triplicate, and there were blank control wells (cell culture medium without cells), drug-free control wells (with no drugs but the same volume of complete medium) and positive drug BSI-201 control wells, and the plates were incubated in an incubator at 37° C. with 5% CO2, full humidity (100% relative humidity) for 48 hours
(§3) 50 μL pre-cooled 50% (mass/volume) TCA was added onto the surface of the culture medium to fix the cells, which was then placed at 4° C. for 1 h. The supernatant was removed and each well was washed with deionized water for 5 times to remove TCA, serum proteins, etc. After dried in the air, about 100 μL enough amount of 0.4% SRB (formulated with 1% acetic acid) was added into each well, and was placed at room temperature for 20 to 30 min. Liquid in each well was discarded and each well was rapidly washed with 1% acetic acid for five times, to remove unbound dye until the unbound dye was completely rinsed clean. After dried in the air until the moisture was invisible, each well was added 200 μL Tris base to dissolve, shaken on a plate oscillator for 5 min or mixed by beating up and down with a pipette tip, and then measured on the multi-function instruction (M5 Detection System, MD Group Ltd.) with a detection wavelength of 515 nm, zero adjusted with 690 nm blank control.
(§4) The dose-response curve was plotted by XL-fit to determine the GI50 value.

[2] = system: human breast cancer cell strain MDA-MB435; experiment: In vitro SRB tumor cell growth inhibition (GI50); type: cell-based; conditions: Homo sapiens, MDA-MB-435, 48 h, MDA-MB435 cells
Description: as §1, §2, §3, §4

[3] = system: human colon cancer cell strain Colo205; experiment: In vitro SRB tumor cell growth inhibition (GI50); type: cell-based; conditions: Colo 205 cells, 48 h
Description: as §1, §2, §3, §4

[4] = system: human hepatoma HepG 2; experiment: In vitro SRB tumor cell growth inhibition (GI50); type: cell-based; conditions: HepG2, HepG 2 cells, 48 h
Description: as §1, §2, §3, §4

[5] = system: human leukemia HL-60; experiment: In vitro SRB tumor cell growth inhibition (GI50); type: cell-based; conditions: Homo sapiens, HL-60, 48 h, HL-60 cells
Description: as §1, §2, §3, §4

[6] = system: human leukemia K562; experiment: In vitro SRB tumor cell growth inhibition (GI50); type: cell-based; conditions: Homo sapiens, K562, 48 h, K562 cells
Description: as §1, §2, §3, §4

[7] = system: human lung cancer cell strain 95D; experiment: In vitro SRB tumor cell growth inhibition (GI50); type: cell-based; conditions: Homo sapiens, 95-D, 48 h, 95D cells
Description: as §1, §2, §3, §4

[8] = system: human lung cancer cell strain A549; experiment: In vitro SRB tumor cell growth inhibition (GI50); type: cell-based; conditions: A549 cells, 48 h
Description: as §1, §2, §3, §4

[9] = system: human lung cancer cell strain NCI-460; experiment: In vitro SRB tumor cell growth inhibition (GI50); type: cell-based; conditions: Homo sapiens, NCI-460, 48 h, NCI-460 cells
Description: as §1, §2, §3, §4

[10] = system: human ovarian cancer cell strain HO8910; experiment: In vitro SRB tumor cell growth inhibition (GI50); type: cell-based; conditions: HO-8910, HO8910 cells, 48 h
Description: as §1, §2, §3, §4

[11] = system: human ovarian cancer cell strain OVCAR-5; experiment: In vitro SRB tumor cell growth inhibition (GI50); type: cell-based; conditions: OVCAR-5 cells, 48 h
Description: as §1, §2, §3, §4

[12] = system: human ovarian cancer cell strain OVCAR-8; experiment: In vitro SRB tumor cell growth inhibition (GI50); type: cell-based; conditions: OVCAR-8 cells
Description: as §1, §2, §3, §4

[13] = system: human ovarian cancer cell strain SKOV-3; experiment: In vitro SRB tumor cell growth inhibition (GI50); type: cell-based; conditions: SK-OV-3, SKOV-3 cells, 48 h
Description: as §1, §2, §3, §4

[14] = system: human pancreatic cancer PANC-1; experiment: In vitro SRB tumor cell growth inhibition (GI50); type: cell-based; conditions: Homo sapiens, PANC-1, 48 h, PANC-1 cells
Description: as §1, §2, §3, §4

[15] = system: human prostate cancer BXPC-3; experiment: In vitro SRB tumor cell growth inhibition (GI50); type: cell-based; conditions: BXPC-3 cells, 48 h
Description: as §1, §2, §3, §4

[16] = system: human prostate cancer DU145; experiment: In vitro SRB tumor cell growth inhibition (GI50); type: cell-based; conditions: Homo sapiens, DU-145, 48 h, DU145 cells
Description: as §1, §2, §3, §4

[17] = system: human uterine cancer Hela; experiment: In vitro SRB tumor cell growth inhibition (GI50); type: cell-based; conditions: Homo sapiens, HeLa, 48 h, Hela cells
Description: as §1, §2, §3, §4

[18] = system: 18 tumor cell strains; experiment: In vitro efficacy screening, summary over the tumor cell strains; type: cell-based, human; conditions: in vitro screening; for inhibitory effects on tumor cell proliferation (in words): BSI-201 as positive drug
Description: as §1, §2, §3, §4

[19] = system: human colon cancer cell strain HCT-116; experiment: In vitro SRB tumor cell growth inhibition (GI50); type: cell-based; conditions: Homo sapiens, HCT-116, 48 h, HCT-116 cells
Description: as §1, §2, §3, §4

SMILES	GI50 [1] [µM]	GI50 [2] [µM]	GI50 [3] [µM]	GI50 [4] [µM]	GI50 [5] [µM]	GI50 [6] [µM]	GI50 [7] [µM]	GI50 [8] [µM]	GI50 [9] [µM]	GI50 [10] [µM]	GI50 [11] [µM]	GI50 ([12]; Homo sapiens, OVCAR-8, 48 h) [µM]	GI50 [13] [µM]	GI50 [14] [µM]	GI50 [15] [µM]	GI50 [16] [µM]	GI50 [17] [µM]	efficacy in inhibition of tumor cell proliferation, graded in words against I-1 [18]	inhibitory effects on tumor cell proliferation (in words) [18]	GI50 [19] [µM]	further results
C#Cc1ccc(C(=O)NC(=O)OC)cc1[N+](=O)[O-] [Compound I-2, N-methoxycarbonyl-4-ethynyl-3-nitrobenzamide]	2.08	11.7	7.03	11.3	2.02	2.8	3.62	8.04	33.8	3.44	4.24	14.1	3.81	13.7	7.42	3.31	7.1	slightly lower than that of I-1	have inhibitory effects on tumor cell proliferation		
C#Cc1ccc(C(=O)N(CC)CC)cc1[N+](=O)[O-] [Compound I-14, N,N-diethyl-4-ethynyl-3-nitrobenzamide]	20.1	1.01	2.79	4.27	1.99	4.52	16.8	17.6	20.9	5	20.9	3.64	10.3	19.9	4.9	4.17	6.7	slightly lower than that of I-1	have inhibitory effects on tumor cell proliferation	11.2	
C#Cc1ccc(C(=O)NCC)cc1[N+](=O)[O-] [Compound I-17, N-ethyl-4-ethynyl-3-nitrobenzamide]	10.6	2.76	3.21	5.85	2.62	2.59	10.3	12.2	14	3.34	16.1	4.6	8.4	12.4	4.79	2.99	4.43	slightly lower than that of I-1	have inhibitory effects on tumor cell proliferation	5.06	
C#Cc1ccc(C(=O)N2CCCC2)cc1[N+](=O)[O-] [Compound I-20, (4-ethynyl-3-nitrophenyl)(pyrrolidin-1-yl)ketone]	20.6	8.49	2.61	5.54	2.24	4.35	15.1	17.3	19.9	4.85	20.3	4.01	9.91	7.64	3.35	4.99	8.98	slightly lower than that of I-1	have inhibitory effects on tumor cell proliferation	9.99	
C#Cc1ccc(C(=O)N2CCCCC2)cc1[N+](=O)[O-] [Compound I-21, (4-ethynyl-3-nitrophenyl)(piperidin-1-yl)ketone]	16.1	5.86	1.52	16	2.87	1.77	14.5	17.9	5.86	4.34	17.5	1.64	22.5	12.5	3.91	2.24	4.17	slightly lower than that of I-1	have inhibitory effects on tumor cell proliferation	8.44	
C#Cc1ccc(C(=O)N2CCN(C)CC2)cc1[N+](=O)[O-] [Compound I-24, (4-ethynyl-3-nitrophenyl)(4-methylpiperazin-1-yl)ketone]	21.5	14.5	10.9	7.12	2.47	8.03	25.8	30.1	31.1	10.2	35.6		9.77	24.3	10.2	6.17	10.1	slightly lower than that of I-1	have inhibitory effects on tumor cell proliferation	8.62	GI50 ([12]; 48 h): 8.92 µM
